Where only a bound is given, the exact number is not on record here.

One may read the Kd as the free concentration of one partner at which half of the binding sites on the other are occupied at equilibrium, for simple one-to-one binding.

This test deals with human TYK2 (JH2domain-pseudokinase) (Homo sapiens (Human), UniProt P29597). Kind of test: TYK2 JH2 Domain Binding Assay (KINOMEscan). The conditions noted are these: Table 4, JH2 binding assay; read-out: JH2 Kd.
Sequence of human TYK2 (JH2domain-pseudokinase) (P29597 556-888): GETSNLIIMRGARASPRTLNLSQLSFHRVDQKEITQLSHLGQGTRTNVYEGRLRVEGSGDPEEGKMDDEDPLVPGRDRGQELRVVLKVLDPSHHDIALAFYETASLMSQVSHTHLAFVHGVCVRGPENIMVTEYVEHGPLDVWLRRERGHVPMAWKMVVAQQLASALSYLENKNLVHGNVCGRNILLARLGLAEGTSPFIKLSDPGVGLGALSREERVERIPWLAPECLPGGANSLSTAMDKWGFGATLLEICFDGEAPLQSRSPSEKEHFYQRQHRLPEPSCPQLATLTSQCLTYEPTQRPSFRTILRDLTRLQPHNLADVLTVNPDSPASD
Regarding `COc1cc(C(=O)N2CCOCC2)ccc1Nc1cc(NC(=O)C2CC2)nc2[nH]n(C)c(=O)c12` [Compound I-71, N-(4-((2-methoxy-4-(morpholine-4-carbonyl)phenyl)amino)-2-methyl-3-oxo-2,3-dihydro-1H-pyrazolo[3,4-b]pyridin-6-yl)cyclopropanecarboxamide], the Kd was in the range of 0.5 to 1 nM. `COc1cc(CO)ccc1Nc1cc(Nc2cccc(C(F)(F)F)n2)nc2[nH]n(C)c(=O)c12` [Compound I-72, 4-((4-(hydroxymethyl)-2-methoxyphenyl)amino)-2-methyl-6-((6-(trifluoromethyl)pyridin-2-yl)amino)-1,2-dihydro-3H-pyrazolo[3,4-b]pyridin-3-one]: the Kd is 1 to 10 nM.

Take `COc1c(F)cccc1Nc1cc(Nc2cc(C)c(F)cn2)nc2[nH]n(C)c(=O)c12` [Compound I-73, 4-((3-fluoro-2-methoxyphenyl)amino)-6-((5-fluoro-4-methylpyridin-2-yl)amino)-2-methyl-1,2-dihydro-3H-pyrazolo[3,4-b]pyridin-3-one]: the Kd is 1 to 10 nM. Take `COc1c(F)cccc1Nc1cc(Nc2cc(C)nc(C)n2)nc2[nH]n(C)c(=O)c12` [Compound I-74, 6-((2,6-dimethylpyrimidin-4-yl)amino)-4-((3-fluoro-2-methoxyphenyl)amino)-2-methyl-1,2-dihydro-3H-pyrazolo[3,4-b]pyridin-3-one]: the Kd lay in the range of 0.1 to 0.5 nM. The same measure for `COc1c(F)cccc1Nc1cc(Nc2ccc(C)nn2)nc2[nH]n(C)c(=O)c12` [Compound I-75, 4-((3-fluoro-2-methoxyphenyl)amino)-2-methyl-6-((6-methylpyridazin-3-yl)amino)-1,2-dihydro-3H-pyrazolo[3,4-b]pyridin-3-one]: 0.1 to 0.5 nM; for `COCc1ccnc(Nc2cc(Nc3cccc(F)c3OC)c3c(=O)n(C)[nH]c3n2)c1` [Compound I-76, 4-((3-fluoro-2-methoxyphenyl)amino)-6-((4-(methoxymethyl)pyridine-2-yl)amino)-2-methyl-1,2-dihydro-3H-pyrazolo[3,4-b]pyridin-3-one]: 1 to 10 nM.

For `COc1c(F)cccc1Nc1cc(Nc2ccc(N3CCCCC3)cn2)nc2[nH]n(C)c(=O)c12` [Compound I-77, 4-((3-fluoro-2-methoxyphenyl)amino)-2-methyl-6-((5-(piperidin-1-yl)pyridin-2-yl)amino)-1,2-dihydro-3H-pyrazolo[3,4-b]pyridin-3-one], the Kd was in the range of 1 to 10 nM. Consider `COc1c(F)cccc1Nc1cc(Nc2ccn(C)n2)nc2[nH]n(C)c(=O)c12` [Compound I-78, 4-((3-fluoro-2-methoxyphenyl)amino)-2-methyl-6-((1-methyl-1H-pyrazol-3-yl)amino)-1,2-dihydro-3H-pyrazolo[3,4-b]pyridin-3-one], for which the Kd lay within 1 to 10 nM. For `COc1c(F)cccc1Nc1cc(Nc2ccc(C#N)cn2)nc2[nH]n(C)c(=O)c12` [Compound I-79, 6-((4-((3-fluoro-2-methoxyphenyl)amino)-2-methyl-3-oxo-2,3-dihydro-1H-pyrazolo[3,4-b]pyridin-6-yl)amino)nicotinonitrile], the Kd is 1 to 10 nM. For `COc1c(F)cccc1Nc1cc(Nc2ccccn2)nc2[nH]n(C)c(=O)c12` [Compound I-80, 4-((3-fluoro-2-methoxyphenyl)amino)-2-methyl-6-(pyridin-2-ylamino)-1,2-dihydro-3H-pyrazolo[3,4-b]pyridin-3-one], the Kd was in the range of 1 to 10 nM. The same measure for `COc1c(F)cccc1Nc1cc(Nc2cccc(C#N)n2)nc2[nH]n(C)c(=O)c12` [Compound I-81, 6-((4-((3-fluoro-2-methoxyphenyl)amino)-2-methyl-3-oxo-2,3-dihydro-1H-pyrazolo[3,4-b]pyridin-6-yl)amino)picolinonitrile]: 0.1 to 0.5 nM; for `COc1cc(C(=O)N2CCC2)ccc1Nc1cc(NC(=O)C2CC2)nc2[nH]n(C)c(=O)c12` [Compound I-82, N-(4-((4-(azetidine-1-carbonyl)-2-methoxyphenyl)amino)-2-methyl-3-oxo-2,3-dihydro-1H-pyrazolo[3,4-b]pyridin-6-yl)cyclopropanecarboxamide]: 0.1 to 0.5 nM. The same measure for `COc1c(F)cccc1Nc1cc(Nc2cc(C)ccn2)nc2[nH]n(C)c(=O)c12` [Compound I-83, 4-((3-fluoro-2-methoxyphenyl)amino)-2-methyl-6-((4-methylpyridin-2-yl)amino)-1,2-dihydro-3H-pyrazolo[3,4-b]pyridin-3-one]: 1 to 10 nM; for `COc1c(F)cccc1Nc1cc(Nc2ccc(C)cn2)nc2[nH]n(C)c(=O)c12` [Compound I-84, 4-((3-fluoro-2-methoxyphenyl)amino)-2-methyl-6-((5-methylpyridin-2-yl)amino)-1,2-dihydro-3H-pyrazolo[3,4-b]pyridin-3-one]: 1 to 10 nM; for `COc1c(F)cccc1Nc1cc(Nc2cncc(C#N)n2)nc2[nH]n(C)c(=O)c12` [Compound I-85, 6-((4-((3-fluoro-2-methoxyphenyl)amino)-2-methyl-3-oxo-2,3-dihydro-1H-pyrazolo[3,4-b]pyridin-6-yl)amino)pyrazine-2-carbonitrile]: 0.5 to 1 nM. Consider `COc1c(F)cccc1Nc1cc(Nc2cccc(C(F)(F)F)n2)nc2[nH]n(C)c(=O)c12` [Compound I-86, 4-((3-fluoro-2-methoxyphenyl)amino)-2-methyl-6-((6-(trifluoromethyl)pyridin-2-yl)amino)-1,2-dihydro-3H-pyrazolo[3,4-b]pyridin-3-one], for which the Kd fell in the range of 1 to 10 nM. The same measure for `COc1c(F)cccc1Nc1cc(Nc2cccc(C3CC3)n2)nc2[nH]n(C)c(=O)c12` [Compound I-87, 6-((6-cyclopropylpyridin-2-yl)amino)-4-((3-fluoro-2-methoxyphenyl)amino)-2-methyl-1,2-dihydro-3H-pyrazolo[3,4-b]pyridin-3-one]: 1 to 10 nM; for `COc1c(Nc2cc(NC(=O)C3CC3)nc3[nH]n(C)c(=O)c23)cccc1N1CCCC1=O` [Compound I-88, N-(4-((2-methoxy-3-(2-oxopyrrolidin-1-yl)phenyl)amino)-2-methyl-3-oxo-2,3-dihydro-1H-pyrazolo[3,4-b]pyridin-6-yl)cyclopropanecarboxamide]: 1 to 10 nM; for `COc1c(F)cccc1Nc1cc(Nc2ccc(N3CCOCC3)cn2)nc2[nH]n(C)c(=O)c12` [Compound I-89, 4-((3-fluoro-2-methoxyphenyl)amino)-2-methyl-6-((5-morpholinopyridin-2-yl)amino)-1,2-dihydro-3H-pyrazolo[3,4-b]pyridin-3-one]: 1 to 10 nM. As to `COc1c(F)cccc1Nc1cc(Nc2ccc(N3CCCC3)cn2)nc2[nH]n(C)c(=O)c12` [Compound I-90, 4-((3-fluoro-2-methoxyphenyl)amino)-2-methyl-6-((5-(pyrrolidin-1-yl)pyridin-2-yl)amino)-1,2-dihydro-3H-pyrazolo[3,4-b]pyridin-3-one], the Kd was above 10 nM. The same measure for `COc1c(F)cccc1Nc1cc(Nc2ccc(C3CC3)cn2)nc2[nH]n(C)c(=O)c12` [Compound I-91, 6-((5-cyclopropylpyridin-2-yl)amino)-4-((3-fluoro-2-methoxyphenyl)amino)-2-methyl-1,2-dihydro-3H-pyrazolo[3,4-b]pyridin-3-one]: 1 to 10 nM.

Source of the values: US10323036B2 (Nimbus Lakshmi, Inc., priority 2016, dated 2019).
